Among the test systems are SNB-75 CNS; SR leukemia; TK-10 renal; NCI/ADR-RES ovarian; U251 CNS; HCT-116 colon; LOX IMVI melanoma; CAKI-1 renal; SK-MEL-28 melanoma; SN12C renal.
Common to all, as to assay: NCI-60 cell line screen, 48 h

Structures are written as SMILES. Where “and” joins values, the source holds several entries; their conditions need not be identical. Equal entries are not always repeated.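 Following 48 hours of exposure in 96-well plates, responses at five concentrations were used to interpolate endpoints linearly. Abbreviation: GI50, concentration required for 50% inhibition of growth. The concentration for full growth arrest is given as TGI.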 Bounds are passed on as bounds.

With `Cc1c2cc[n+](CCN3CCCCC3)cc2c(C)c2c1[nH]c1ccc(O)cc12`, the GI50 in the test with SNB-75 CNS was 2.7 µM; with NCI/ADR-RES ovarian it was 27.4 µM; with U251 CNS, 1.7 µM; with HCT-116 colon, 4.75 µM; in the test with LOX IMVI melanoma, 8.69 µM; in the test on CAKI-1 renal, 21.1 µM. Besides, the GI50 in the test with SK-MEL-28 melanoma was 9.29 µM; in the test on SN12C renal, 0.16 µM. Further, the TGI in the test on SNB-75 CNS was 5.4 µM and 18.7 µM; in the test on SR leukemia it was 3.49 µM; with TK-10 renal, more than 57.6 µM; with NCI/ADR-RES ovarian it was 72.2 µM and > 100 µM; in the test on U251 CNS, 10.6 µM and 10.4 µM; with HCT-116 colon it was 24.1 µM and 26.1 µM. For the same compound, the TGI is 58.2 µM and 76.2 µM with LOX IMVI melanoma; 24.3 µM and > 100 µM in the test with CAKI-1 renal; 33.7 µM and > 45.9 µM in the test on SK-MEL-28 melanoma; 20.8 µM and 6.03 µM with SN12C renal.

(Values after PubChem BioAssay (NCI).)
